Results as given in US20050043371A1, “Aminoalcohol derivatives and their use as beta 3 adrenergic agonists” (Fujisawa Pharmaceutical Co. Ltd., priority 1999, published 2005).

How the values were obtained:
anesthetized dog = assay: Effect on the increase in intravesical pressure induced by carbachol in anesthetized dog; format: in vivo; conditions: 0.01 mg/kg injected intravenously 5 minutes before carbachol (1.8 μg/kg); female Beagle dogs under halothane anesthesia; N = 3; P < 0.01 vs Control (4.5 ± 0.3)
Protocol: Effect on the increase in intravesical pressure induced by carbachol in anesthetized dog
Female Beagle dogs weighing 8.0-15.0 kg were fasted for 24 hours and maintained under halothane anesthesia. A 12F Foley catheter was lubricated with water soluble jelly, inserted into the urethral orifice and advanced approximately 10 cm until the balloon tip was placed well inside the bladder. The balloon was then inflated with 5 ml of room air and catheter slowly withdrawn just part the first resistance that is felt at the bladder neck. Urine was completely drained out through the catheter, and 30 ml of biological saline was infused. The catheter was connected to pressure transducer, and intravesical pressure was continuously recorded. The test compound was injected intravenously at 5 minutes before the administration of carbachol (1.8 μg/kg).

Row | melting point | SMILES | Increase in intravescial pressure (mmHg) (anesthetized dog)
1 | 121 to 123 °C | COc1ccc(C(C[C@@H](C)NC[C@H](O)COc2ccccc2)c2ccc(OC)cc2)cc1.O=C(O)C(=O)O | 
2 | 79 to 94 °C | COc1ccc(C(C[C@H](C)NC[C@H](O)COc2ccccc2)c2ccc(OC)cc2)cc1.O=C(O)C(=O)O | 
3 |  | CC(CC(c1ccc(O)cc1)c1ccc(O)cc1)NC[C@H](O)COc1ccccc1.Cl (mixture of isomers) [Test Compound (1), (2S)-1-[[(2RS)-4,4-bis(4-hydroxyphenyl)-2-butyl]amino]-3-phenoxy-2-propanol hydrochloride] [listing 1 of 2 here] | 2.5 ± 0.3
4 | 73 °C (dec.) | CC(CC(c1ccc(O)cc1)c1ccc(O)cc1)NC[C@H](O)COc1ccccc1.Cl (mixture of isomers) [Test Compound (1), (2S)-1-[[(2RS)-4,4-bis(4-hydroxyphenyl)-2-butyl]amino]-3-phenoxy-2-propanol hydrochloride] [listing 2 of 2 here] | 
